tested on: KMS.12.BM cells; test: KMS.12.BM Cell Viability Assay (Example B1); assay type: cell-based, human; conditions: 3 days, Cell Titer-GLO, read-out: KMS cellular IC50
Protocol: KMS.12.BM cell line (human myeloma) was purchased from JCRB (Osaka, Japan) and maintained in RPMI with 10% FBS culture medium. To measure the cytotoxic activity of the compounds through ATP quantitation, the KMS.12.BM cells are plated in the RPMI culture medium at 5000 cells/well/per 100 μL into a 96-well polystyrene clear black tissue culture plate (Greiner-bio-one through VWR, NJ), in the presence or absence of a concentration range of test compounds. After 3 days, […] Cell Titer-GLO Luminescent (Promega, Madison, Wis.) cell culture agent is added to each well for 10 min. at room temperature to stabilize the luminescent signal. This determines the number of viable cells in culture based on quantitation of the ATP present, which signals the presence of metabolically active cells.

`Cc1noc(C)c1-c1ccc2[nH]c(=O)n3c2c1OCC3C1CCCO1` (single isomer, unassigned) [Example 18B, 7-(3,5-Dimethylisoxazol-4-yl)-4-(tetrahydrofuran-2-yl)-4,5-dihydroimidazo[1,5,4-de][1,4]benzoxazin-2(1H)-one] and `Cc1noc(C)c1-c1ccc2[nH]c(=O)n3c2c1OC(CO)C3c1ccccn1` (single isomer, unassigned) [Example 62C, 7-(3,5-Dimethylisoxazol-4-yl)-5-(hydroxymethyl)-4-pyridin-2-yl-4,5-dihydroimidazo[1,5,4-de][1,4]benzoxazin-2(1H)-one] cannot be ordered by IC50: < 1 µM for the first, < 1 µM for the second.

In the case of `Cc1noc(C)c1-c1ccc2nc(NC(C)CO)n3c2c1OCC3c1ccccc1` (single isomer, unassigned) [Example 31, 2-{[7-(3,5-Dimethylisoxazol-4-yl)-4-phenyl-4,5-dihydroimidazo[1,5,4-de][1,4]benzoxazin-2-yl]amino}propan-1-ol], the IC50 is reported as < 1 µM.

same assay, conditions: Homo sapiens, 72 h, 3 days, Cell Titer-GLO, read-out: KMS cellular IC50

`COC(=O)c1ncccc1C1COc2c(-c3c(C)noc3C)ccc3[nH]c(=O)n1c23` (racemic) [Example 132, Methyl 3-[7-(3,5-dimethylisoxazol-4-yl)-2-oxo-1,2,4,5-tetrahydroimidazo[1,5,4-de][1,4]benzoxazin-4-yl]pyridine-2-carboxylate] and `Cc1noc(C)c1-c1ccc2[nH]c(=O)n3c2c1OC(CO)C3c1ccccn1` (single isomer, unassigned) [Example 62B, 7-(3,5-Dimethylisoxazol-4-yl)-5-(hydroxymethyl)-4-pyridin-2-yl-4,5-dihydroimidazo[1,5,4-de][1,4]benzoxazin-2(1H)-one] cannot be ordered by IC50: < 1 µM for the first, < 1 µM for the second.

Compared with `Cc1noc(C)c1-c1ccc2[nH]c(=O)n3c2c1OCC3C1CCCO1` (single isomer, unassigned) [Example 18A, 7-(3,5-Dimethylisoxazol-4-yl)-4-(tetrahydrofuran-2-yl)-4,5-dihydroimidazo[1,5,4-de][1,4]benzoxazin-2(1H)-one], `Cc1noc(C)c1-c1ccc2[nH]c(=O)n3c2c1OC(C(=O)NCCO)C3c1ccccc1` (single isomer, unassigned) [Example 48B, 7-(3,5-Dimethylisoxazol-4-yl)-N-(2-hydroxyethyl)-2-oxo-4-phenyl-1,2,4,5-tetrahydroimidazo[1,5,4-de][1,4]benzoxazine-5-carboxamide] is higher in IC50: < 1 µM for the first, 1 to 10 µM for the second.

same assay, conditions: Homo sapiens, KMS-12-BM, 72 h, 3 days, Cell Titer-GLO, read-out: KMS cellular IC50

First: Cc1noc(C)c1-c1ccc2c3c1CCC(c1ccccc1)n3c(=O)n2C (racemic) [Example 121, 7-(3,5-Dimethylisoxazol-4-yl)-1-methyl-4-phenyl-5,6-dihydro-4H-imidazo[4,5,1-ij]quinolin-2(1H)-one]
Second: Cc1noc(C)c1-c1ccc2[nH]c(=O)n3c2c1OC(C(=O)N(C)C)C3c1ccccc1 (single isomer, unassigned) [Example 47B, 7-(3,5-Dimethylisoxazol-4-yl)-N,N-dimethyl-2-oxo-4-phenyl-1,2,4,5-tetrahydroimidazo[1,5,4-de][1,4]benzoxazine-5-carboxamide]
The IC50 of the first is lower: < 1 µM for the first, 1 to 10 µM for the second.

`Cc1noc(C)c1-c1ccc2[nH]c(=O)n3c2c1OCC3c1cccnc1C#N` (racemic) [Example 126, 3-[7-(3,5-Dimethylisoxazol-4-yl)-2-oxo-1,2,4,5-tetrahydroimidazo[1,5,4-de][1,4]benzoxazin-4-yl]pyridine-2-carbonitrile] and `Cc1noc(C)c1-c1ccc2[nH]c(=O)n3c2c1OC(C)(C)C3c1ccccn1` (single isomer, unassigned) [Example 61A, 7-(3,5-Dimethylisoxazol-4-yl)-5,5-dimethyl-4-pyridin-2-yl-4,5-dihydroimidazo[1,5,4-de][1,4]benzoxazin-2(1H)-one] cannot be ordered by IC50: < 1 µM for the first, < 1 µM for the second.

With `Cc1noc(C)c1-c1ccc2nc(N3CCC(C)(O)C3)n3c2c1OC[C@@H]3c1ccccn1` (mixture of isomers) [Example 146C, 1-[(4S)-7-(3,5-Dimethylisoxazol-4-yl)-4-pyridin-2-yl-4,5-dihydroimidazo[1,5,4-de][1,4]benzoxazin-2-yl]-3-methylpyrrolidin-3-ol] the IC50 was < 1 µM.

Source: US10464947B2 (Incyte Corporation, priority 2013, dated 2019)
